In patent US7141170B2, “Halogenated solvent remediation” (North Wind, Inc., priority 2004, dated 2006):

Tests used:
[1] = Surface tension of electron donor solutions (pendant drop); format: physicochemical; settings: for change in surface tension: 0% ethyl lactate
Description: Two fundamental properties used to screen the co-solvent or surfactant properties of a solution are surface tension and interfacial tension. Surface tension measures the force per unit length along the interface between a liquid and air due to its tension. When a co-solvent or surfactant is present in an aqueous liquid at increasing concentrations, the surface tension of that liquid decreases. Interfacial tension is similar to surface tension except that it measures the force per unit length along the interface between two liquid phases arising from the surface free energy. The higher the interfacial tension between two liquids, the less likely one is to dissolve into the other, and the more difficult it is for one to be transported within the other. Thus, perhaps the most significant property of co-solvents and surfactants in the context of chlorinated solvent remediation is that they decrease the interfacial tension between the aqueous phase (groundwater) and the organic nonaqueous phase so that the solubility (or mobility for order-of-magnitude decreases) of the nonaqueous phase is enhanced. The laboratory study performed to confirm the co-solvent properties of the high concentration electron donor solution measured the surface tension of electron donor solutions at various concentrations. Next, interfacial tensions between the same electron donor solutions and nonaqueous phase TCE were measured. Two types of electron donor solutions were used. […] Surface and interfacial tension measurements were made using the pendant drop method (M. J. Rosen, ed., Structure/Performance Relationships in Surfactants, American Chemical Society, Washington […]. Arundel, The Profile Area of Pendant Drops, 82 J. Phys. Chem. 898 (1978)) coupled with real-time video imaging (M. D. Herd et al., Interfacial Tensions of Microbial Surfactants Determined by Real-Time Video Imaging of Pendant Drops, Proceedings paper number SPE/DOE 24206 513-519, SPE/DOE Eighth Symposium on Enhanced Oil Recovery, Tulsa, Okla. (1992)).

[2] = Interfacial tension between electron donor solutions and nonaqueous phase TCE (pendant drop); format: physicochemical; settings: 0% ethyl lactate
Description: Based on the field results presented in Example 1, laboratory studies were preformed to confirm that the enhanced bioavailability of TCE observed in the field was due to co-solvent or surfactant behavior resulting from the use of high concentrations of sodium lactate. Two fundamental properties used to screen the co-solvent or surfactant properties of a solution are surface tension and interfacial tension. Surface tension measures the force per unit length along the interface between a liquid and air due to its tension. When a co-solvent or surfactant is present in an aqueous liquid at increasing concentrations, the surface tension of that liquid decreases. Interfacial tension is similar to surface tension except that it measures the force per unit length along the interface between two liquid phases arising from the surface free energy. The higher the interfacial tension between two liquids, the less likely one is to dissolve into the other, and the more difficult it is for one to be transported within the other. […]
The laboratory study performed to confirm the co-solvent properties of the high concentration electron donor solution measured the surface tension of electron donor solutions at various concentrations. Next, interfacial tensions between the same electron donor solutions and nonaqueous phase TCE were measured. […]

[3] = Field evaluation of enhanced in situ bioremediation at Test Area North (sodium lactate injection)
Method: A 1-year field evaluation of enhanced in situ bioremediation was performed at Test Area North (“TAN”) of the Idaho National Engineering and Environmental Laboratory. […] The locations of a 5,000 μg/L TCE isopleth (14); 1,000 μg/L TCE isopleth (16); 100 μg/L TCE isopleth (18); and 5 μg/L TCE isopleth (20) are shown by solid lines. FIG. 2 illustrates a cross section of this site, showing the surface of the ground (22), an approximately 63-m (210-feet) fractured basalt unsaturation zone (24) (not drawn to scale), an approximately 60-m (200-feet) fractured basalt aquifer (26), and an impermeable clay interbed (28). […]
The initial electron donor addition strategy involved continuous injection of potable water at 37.85 liters/minute (10 gpm) into Well TSF-05. […] It was determined that the continuous injection of clean water at 37.85 liters/minute (10 gpm) overwhelmed the flux of contaminants from the secondary source. […] This was intended to prevent significant quantities of electron donor from collecting in the injection well and to help prevent biofouling. […]
Eleven monitoring wells (i.e., TAN-D2, TAN-9, TAN-10A, TAN-25, TAN-26, TAN-27, TAN-28, TAN-29, TAN-30A, TAN-31, and TAN-37) were sampled biweekly and analyzed for electron donors, biological activity indicators, competing inorganic electron acceptors and their reduced products, chloroethenes, ethene, pH, temperature, and specific conductivity.

[4] = system: TCE-dechlorinating culture derived from TAN-25 groundwater; assay: Microcosm dechlorination and electron donor utilization study; format: cell-based
Method: Dechlorination studies were carried out to determine if whey powder solutions facilitate complete degradation of target contaminants at reasonable rates. Microcosms were constructed in triplicate sets. These microcosms were amended periodically with whey powder and TCE and analyzed monthly for TCE, its reductive degradation products, electron donor (as both COD and volatile fatty acids (VFAs)), redox, and pH.
An existing laboratory, sodium lactate-fed culture, derived from TAN-25 groundwater undergoing complete anaerobic reductive dechlorination (ARD) of TCE to ethene, was used to inoculate the cultures. Fresh TAN groundwater from the source area was also used to ensure that microbial populations that have been lost as a result of laboratory conditions were present for the evaluation. Serum vials (160 mL) were used as microcosms to grow the cultures. Prior to inoculation, the microcosms, along with all other culture-contact supplies, were autoclaved at 121° C. for 20 minutes and cooled to room temperature. Inoculation of the microcosms was done in a glove box containing nitrogen (95%), carbon dioxide (2.5%), and hydrogen (2.5%). Each microcosm was loaded with the inoculum, which comprised cells from the TCE-dechlorinating culture (1 L), cells from TAN-25 groundwater (1 L), and TAN-37 groundwater (2.5 L) as the media.
The culture cells were used to ensure a robust dechlorinating community was present, and cells were collected from TAN-25 groundwater to ensure the laboratory community was representative of the community at TAN. […] The cell pellets from the dechlorinating culture and TAN-25 groundwater were separated from the supernatant because both contained electron donors, including propionate, acetate, and lactate. TAN-37 groundwater was selected as the medium because it was anaerobic groundwater that contained little or no carbon (40 mg/L as COD with <2.5 ppm acetate and propionate) that might interfere with the evaluation of electron donor utilization. The inoculum mixture was then spiked with TCE (10 ppm), aliquoted (100 mL) into the microcosms, and each respective electron donor was added (˜200 ppm for all electron donors except whey powder [˜400 ppm]). The microcosms were then sealed with butyl-rubber septa and crimped. The headspace of each microcosm was flushed for 10 minutes with 100% nitrogen, and then an initial positive pressure of 5 psig was induced into each one. […] The test microcosms were prepared in triplicate and negative control microcosms were amended with whey powder and LactOil™/propionate. The study included a total of 20 microcosms.
Three months after inoculation, additional electron donor was added to all of the microcosms (200 to 300 mg/L as COD). […] At this point, approximately 50 mL of TAN-37 groundwater was also amended to all of the biotic microcosms to replace the volume lost because of sampling. This was done by placing all of the biotic microcosms into the anaerobic chamber containing nitrogen (95%), carbon dioxide (2.5%), and hydrogen (2.5%); removing the septum; adding TAN-37 groundwater and electron donor; and replacing septum and spiking each microcosm with a TCE stock solution. TCE was amended to all of the microcosms 4 and 6 months after inoculation.
Throughout these studies, the microcosms were monitored monthly for TCE, cis-DCE, trans-DCE, VC, ethene, ethane, methane, lactate, acetate, propionate, butyrate, pH, and Eh. […] Analytical samples (6 mL) were removed using a glass syringe (Hamilton Co., Reno, Nev.) and a 22-gauge sterile needle.

Row | SMILES | effect on the solution's surface tension ([1]; addition of 1% and 10% ethyl lactate to the different sodium lactate solutions) | interfacial tension as % of the value at a sodium lactate concentration of 0.1% ([2]; sodium lactate 30%) | decrease of interfacial tension ([2]; sodium lactate increased from 0.1 to 3%) | reductive dechlorination of TCE to ethene ([3]; all wells receiving significant lactate concentrations) | TCE concentrations deep in the aquifer soon after addition began ([3]; well TAN-26) | change in surface tension ([1]; sodium lactate concentration increased to 30 and 60%) | change in surface tension ([1]; sodium lactate concentrations from 0.01 to 7%) | accumulated cis-DCE, average concentration ([4]; 1 month after inoculation) | methane accumulated, average ([4]; between 6 and 7 months) | methane concentration generated ([4]; in 3 months) | TCE remaining ([4]; one month after TCE re-addition, only ethene present) | TCE remaining ([4]; three months after inoculation, only ethene detected) | ethene production as share of amended TCE ([4]; two months after inoculation)
1 | CCOC(=O)C(C)O (stereo not shown) [ethyl lactate] | pronounced effect | – | – | – | – | – | – | – | – | – | – | – | –
2 | CC(O)C(=O)[O-].[Na+] (stereo not shown) [sodium lactate] | – | 47% | about 26% | Enhanced reductive dechlorination of TCE to ethene was observed | dramatic increase | dramatic decrease | almost no change | 75 ppb | 21 µM | approximately 50 μM | all of the TCE was gone | all of the TCE was gone | 10%
